This passage reports IC50 results from patent US6727250B2, “Carboxylic acid amides, pharmaceutical compositions containing these compounds, their use and preparation” (Boehringer Ingelheim Pharma KG, priority 1999, dated 2004).

T1 sequence (O14746 whole entry): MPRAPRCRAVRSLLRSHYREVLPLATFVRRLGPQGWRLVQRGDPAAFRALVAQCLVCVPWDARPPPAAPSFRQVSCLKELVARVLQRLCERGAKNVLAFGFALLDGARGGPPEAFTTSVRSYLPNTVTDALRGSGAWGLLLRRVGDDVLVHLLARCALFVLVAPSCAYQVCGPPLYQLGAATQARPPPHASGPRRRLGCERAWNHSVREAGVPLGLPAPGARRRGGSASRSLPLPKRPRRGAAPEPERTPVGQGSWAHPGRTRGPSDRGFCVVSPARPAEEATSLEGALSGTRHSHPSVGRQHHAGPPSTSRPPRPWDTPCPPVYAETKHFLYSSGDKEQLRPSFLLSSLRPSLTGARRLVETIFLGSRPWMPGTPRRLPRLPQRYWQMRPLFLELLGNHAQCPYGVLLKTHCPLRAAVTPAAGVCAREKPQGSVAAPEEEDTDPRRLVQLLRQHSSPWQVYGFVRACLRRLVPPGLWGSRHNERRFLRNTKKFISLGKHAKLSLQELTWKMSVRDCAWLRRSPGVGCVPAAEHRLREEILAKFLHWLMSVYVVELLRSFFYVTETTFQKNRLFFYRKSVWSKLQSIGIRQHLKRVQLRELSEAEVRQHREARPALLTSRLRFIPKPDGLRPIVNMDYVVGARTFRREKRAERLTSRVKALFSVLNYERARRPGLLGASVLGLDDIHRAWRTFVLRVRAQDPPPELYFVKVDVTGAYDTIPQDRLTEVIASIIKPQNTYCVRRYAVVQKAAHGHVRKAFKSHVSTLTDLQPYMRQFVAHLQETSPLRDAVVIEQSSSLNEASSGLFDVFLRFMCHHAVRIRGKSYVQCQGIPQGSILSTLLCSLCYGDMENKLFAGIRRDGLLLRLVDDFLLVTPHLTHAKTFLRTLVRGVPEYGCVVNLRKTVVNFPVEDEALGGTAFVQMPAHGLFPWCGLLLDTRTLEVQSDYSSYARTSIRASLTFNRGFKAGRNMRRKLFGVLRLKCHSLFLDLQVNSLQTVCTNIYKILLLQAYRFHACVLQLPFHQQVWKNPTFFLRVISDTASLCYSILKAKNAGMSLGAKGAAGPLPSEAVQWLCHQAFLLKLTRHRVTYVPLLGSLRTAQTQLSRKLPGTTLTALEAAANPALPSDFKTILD
T1 sequence (O60832 whole entry partner): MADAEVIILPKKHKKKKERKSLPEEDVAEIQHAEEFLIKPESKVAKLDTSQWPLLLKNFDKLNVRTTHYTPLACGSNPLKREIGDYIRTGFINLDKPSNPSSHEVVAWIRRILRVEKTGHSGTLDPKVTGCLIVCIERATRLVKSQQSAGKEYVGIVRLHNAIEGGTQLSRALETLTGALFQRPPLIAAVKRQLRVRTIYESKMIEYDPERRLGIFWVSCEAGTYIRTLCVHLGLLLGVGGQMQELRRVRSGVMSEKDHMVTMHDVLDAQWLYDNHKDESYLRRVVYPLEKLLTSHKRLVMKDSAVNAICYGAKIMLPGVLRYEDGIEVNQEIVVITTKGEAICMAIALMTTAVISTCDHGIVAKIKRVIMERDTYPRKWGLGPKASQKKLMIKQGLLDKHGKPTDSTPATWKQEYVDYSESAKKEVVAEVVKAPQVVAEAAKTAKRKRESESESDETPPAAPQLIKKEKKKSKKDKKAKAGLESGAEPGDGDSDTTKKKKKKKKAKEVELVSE
T1 sequence (Q9NPE3 whole entry partner): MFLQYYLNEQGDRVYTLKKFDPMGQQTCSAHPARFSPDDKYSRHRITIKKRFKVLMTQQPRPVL
T1 sequence (Q9NX24 whole entry partner): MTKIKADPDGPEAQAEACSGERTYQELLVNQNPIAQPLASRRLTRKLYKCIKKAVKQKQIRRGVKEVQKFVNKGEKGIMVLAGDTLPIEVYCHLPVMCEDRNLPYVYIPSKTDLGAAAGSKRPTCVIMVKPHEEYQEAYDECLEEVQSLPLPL
T1 sequence (Q9NY12 whole entry partner): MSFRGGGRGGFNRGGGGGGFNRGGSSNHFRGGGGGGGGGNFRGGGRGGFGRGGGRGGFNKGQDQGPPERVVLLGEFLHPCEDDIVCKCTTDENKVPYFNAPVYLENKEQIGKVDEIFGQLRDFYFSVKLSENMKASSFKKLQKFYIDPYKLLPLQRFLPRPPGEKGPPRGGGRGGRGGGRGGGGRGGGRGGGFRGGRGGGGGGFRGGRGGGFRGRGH
T1 sequence (Q9BUR4 whole entry partner): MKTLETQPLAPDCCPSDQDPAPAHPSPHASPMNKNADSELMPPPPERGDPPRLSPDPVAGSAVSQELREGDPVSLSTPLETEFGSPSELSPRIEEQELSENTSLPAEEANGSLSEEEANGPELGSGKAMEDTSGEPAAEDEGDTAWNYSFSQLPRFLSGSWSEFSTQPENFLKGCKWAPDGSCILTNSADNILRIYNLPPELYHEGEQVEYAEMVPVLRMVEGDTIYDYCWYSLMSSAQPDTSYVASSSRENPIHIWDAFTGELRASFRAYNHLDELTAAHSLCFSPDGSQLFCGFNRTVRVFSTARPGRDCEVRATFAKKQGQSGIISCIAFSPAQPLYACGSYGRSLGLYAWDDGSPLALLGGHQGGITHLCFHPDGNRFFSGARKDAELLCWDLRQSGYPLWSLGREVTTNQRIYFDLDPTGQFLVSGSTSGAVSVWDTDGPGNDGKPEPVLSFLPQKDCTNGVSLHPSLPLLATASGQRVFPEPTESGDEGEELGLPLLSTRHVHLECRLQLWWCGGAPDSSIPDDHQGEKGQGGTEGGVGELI

This assay concerns the target T1, telomerase in nuclear extracts from HeLa cells (Homo sapiens, UniProt O14746).
T1 construct: The activity of telomerase in nuclear extracts from HeLa cells; endogenous in cells; host or cells: HeLa-S3 nuclear extract (ATCC CCL-2.2), prepared according to Dignam
Kind of assay: Telomerase test: activity of telomerase in nuclear extracts from HeLa cells (method of Morin). As to conditions: concentration of inhibitor which inhibits the telomerase activity by 50%; HeLa nuclear extract, 120 minutes at 30° C., Phospho-Imager quantification. Format: biochemical. The procedure: The inhibiting effect of the carboxylic acid amides of general formula I on telomerase was investigated as follows: […]
1. Preparation of Nuclear Extracts from HeLa Cells:
Nuclear extracts were prepared according to Dignam (Dignam et al. in Nucleic Acids Res. 11, 1475-1489 (1983)). All the steps were carried out at 4° C., all the equipment and solutions were pre-cooled to 4° C. At least 1×10^9 HeLa-S3 cells growing in suspension culture (ATCC catalogue number CCL-2.2) were harvested by centrifuging for 5 minutes at 1000× g and washed once with PBS buffer ([…]; 2.7 mM KCl; 8.1 mM Na2HPO4; 1.5 mM KH2PO4). After the cell volume had been determined, the cells were suspended in 5 times the volume of hypotonic buffer (10 mM HEPES/KOH, pH 7.8; 10 mM KCl; 1.5 mM MgCl2) and then left for 10 minutes at 4° C. After centrifuging for 5 minutes at 1000× g the cell pellet was suspended in twice the volume of hypotonic buffer in the presence of 1 mM DTE and 1 mM PMSF and broken up with a Dounce homogeniser. The homogenised material was made isotonic with 0.1 volume of 10-fold saline buffer (300 mM HEPES/KOH, pH 7.8; 1.4 M KCl; 30 mM MgCl2). The cell nuclei were separated from the ingredients of the cytoplasm by centrifuging and then suspended in twice the volume of nuclear extraction buffer (20 mM HEPES/KOH, pH 7.9; 420 mM KCl; 1.5 mM MgCl2; 0.2 mM EDTA; 0.5 mM DTE; 25% glycerol). The nuclei were broken up using a Dounce homogeniser and incubated for 30 minutes at 4° C. with gentle stirring. Any insoluble ingredients were removed by centrifuging for 30 minutes at 10.000 rpm (SS-34 Rotor). Then the nuclear extract was dialysed for 4-5 hours against AM-100 buffer (20 mM tris/HCl, pH 7.9; 100 mM KCl; 0.1 mM EDTA; 0.5 mM DTE; 20% glycerol). The nuclear extracts obtained were frozen in liquid nitrogen and stored at −80° C.
The activity of telomerase in nuclear extracts from HeLa cells was determined using the method described by Morin (Morin in Cell 59, 521-529 (1989)). […] If the inhibition constant of potential telomerase inhibitors was to be determined, these were also added to the telomerase reaction in a concentration range of from 1 nM to 100 μM.
The reaction was then stopped by the addition of 50 μl of RNase stop buffer (10 mM tris/HCL, pH 8.0; 20 mM EDTA; 0.1 mg/ml of RNase A 100 U/ml of RNase T1; 1000 cpm of an α-^32P-dGTP labelled, 430 bp DNA fragment) and incubation was continued for a further 15 minutes at 37° C. Proteins present in the reaction mixture were cleaved by the addition of 50 μl of proteinase K buffer (10 mM tris/HCL, pH 8.0; 0.5% SDS; 0.3 mg/ml of proteinase K) and subsequent incubation for 15 min at 37° C. The DNA was purified by extracting twice with phenol-chloroform and precipitated by adding 2.4 M ammonium acetate; 3 μg tRNA and 750 μl ethanol. Then the precipitated DNA was washed with 500 μl of 70% ethanol, dried at ambient temperature, taken up in 4 μl of formamide probe buffer (80% (V/V) formamide; 50 mM of tris-borate, pH 8.3; 1 mM EDTA; 0.1 (w/v) of xylene cyanol; 0.1% (w/v) bromophenol blue) and separated by electrophoresis on a sequence gel (8% polyacrylamide, 7 M urea, 1× TBE buffer). The DNA synthesised by telomerase in the presence or absence of potential inhibitors was identified and quantified by Phospho-Imager Analysis (Molecular Dynamics) and in this way the concentration of inhibitor which inhibits the telomerase activity by 50% (IC50) was determined.
In general, IC50 refers to the concentration at which inhibition is half-maximal. As to `C/C(=C\C(=O)Nc1ccccc1C(=O)O)c1ccc(Cl)c(Cl)c1` [Example 10, trans-3-(3,4-dichlorophenyl)-but-2-enoic acid-N-(2-carboxy-phenyl)-amide], half-maximal inhibition (IC50) was put at 5000 nM. Regarding `COc1cc(C(=O)O)c(NC(=O)/C=C(\C)c2ccc(Cl)c(Cl)c2)cc1C` [Example 17, trans-3-(3,4-dichlorophenyl)-but-2-enoic acid-N-(2-carboxy-4-methoxy-5-methyl-phenyl)-amide], the IC50 turned out to be 1000 nM. Take `C/C(=C\C(=O)Nc1ccccc1C(=O)O)c1ccc2ccccc2c1` [Example 18, trans-3-(naphth-2-yl)-but-2-enoic acid-N-(2-carboxy-phenyl)-amide]: 40 nM corresponded to half-maximal inhibition (IC50). `COc1cc(NC(=O)/C=C(\C)c2ccc3ccccc3c2)c(C(=O)O)cc1OC` [Example 28, trans-3-(naphth-2-yl)-but-2-enoic acid-N-(2-carboxy-4,5-dimethoxy-phenyl)-amide] registered an IC50 of 35 nM. For the compound `C/C(=C\C(=O)Nc1cc(Cl)ccc1C(=O)O)c1ccc2ccccc2c1` [Example 29, trans-3-(naphth-2-yl)-but-2-enoic acid-N-(2-carboxy-5-chloro-phenyl)-amide], 550 nM corresponded to half-maximal inhibition (IC50). Turning to `C/C(=C\C(=O)Nc1ccc(F)cc1C(=O)O)c1ccc2ccccc2c1` [Example 31, trans-3-(naphth-2-yl)-but-2-enoic acid-N-(2-carboxy-4-fluoro-phenyl)-amide], the IC50 is 100 nM.
